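Assay format: 96-well plates, 48-hour exposure. Here, GI50 denotes the concentration required for 50% inhibition of growth.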 Calls of active or inactive are those of the source. Cut-off read from the data, not from the text of the source: active = GI50 up to about 1.1 µM and inactive = higher.
Tests used:
Assay in all cases: DTP human tumour cell line panel, 48 h
786-0 = system: 786-0
A498 = system: A498
A549 = system: A549
ACHN = system: ACHN
BT-549 = system: BT-549
CAKI-1 = system: CAKI-1
CCRF-CEM = system: CCRF-CEM
COLO 205 = system: COLO 205
DU-145 = system: DU-145
EKVX = system: EKVX
HCC 2998 = system: HCC 2998
HCT-116 = system: HCT-116
HCT-15 = system: HCT-15
HL-60 = system: HL-60
HOP-62 = system: HOP-62
HOP-92 = system: HOP-92
HT-29 = system: HT-29
Hs-578T = system: Hs-578T
IGROV-1 = system: IGROV-1
K562 = system: K562
KM12 = system: KM12
LOX IMVI = system: LOX IMVI
M14 = system: M14
MCF7 = system: MCF7
MDA-MB-231 = system: MDA-MB-231
MDA-MB-435 = system: MDA-MB-435
MDA-N = system: MDA-N
MOLT-4 = system: MOLT-4
Malme-3M = system: Malme-3M
NCI-H226 = system: NCI-H226
NCI-H23 = system: NCI-H23
NCI-H460 = system: NCI-H460
NCI-H522 = system: NCI-H522
NCI/ADR-RES = system: NCI/ADR-RES
OVCAR-3 = system: OVCAR-3
OVCAR-4 = system: OVCAR-4
OVCAR-5 = system: OVCAR-5
OVCAR-8 = system: OVCAR-8
PC-3 = system: PC-3
RPMI-8226 = system: RPMI-8226
RXF 393 = system: RXF 393
SF-268 = system: SF-268
SF-295 = system: SF-295
SF-539 = system: SF-539
SK-MEL-28 = system: SK-MEL-28
SK-MEL-2 = system: SK-MEL-2
SK-MEL-5 = system: SK-MEL-5
SK-OV-3 = system: SK-OV-3
SN12C = system: SN12C
SNB-19 = system: SNB-19
SNB-75 = system: SNB-75
SW-620 = system: SW-620
T47D = system: T47D
TK-10 = system: TK-10
U-251 = system: U-251
UACC-257 = system: UACC-257
UACC-62 = system: UACC-62
UO-31 = system: UO-31

Cc1ccc2c(n1)C(=O)c1ccccc1C2=O
GI50 (786-0): 27.6 µM (inactive) | GI50 (A498): 31.6 µM (inactive) | GI50 (A549): 21.2 µM (inactive) | GI50 (ACHN): 31.8 µM (inactive) | GI50 (BT-549): 32.4 µM (inactive) | GI50 (CAKI-1): 39.2 µM (inactive) | GI50 (CCRF-CEM): 37.7 µM (inactive) | GI50 (COLO 205): 16.9 µM (inactive) | GI50 (DU-145): 17.3 µM (inactive) | GI50 (EKVX): 27.5 µM (inactive) | GI50 (HCC 2998): 28.8 µM (inactive) | GI50 (HCT-116): 22.9 µM (inactive) | GI50 (HCT-15): 25.8 µM | GI50 (HL-60): 15.4 µM (inactive) | GI50 (HOP-62): 38 µM (inactive) | GI50 (HOP-92): 51.6 µM (inactive) | GI50 (HT-29): 23.5 µM (inactive) | GI50 (Hs-578T): 72.3 µM (inactive) | GI50 (IGROV-1): 24.3 µM (inactive) | GI50 (K562): 30.2 µM (inactive) | GI50 (KM12): 30.1 µM (inactive) | GI50 (LOX IMVI): 17.6 µM (inactive) | GI50 (M14): > 44.5 µM (inactive) | GI50 (MCF7): 17.3 µM (inactive) | GI50 (MDA-MB-231): 23.3 µM (inactive) | GI50 (MDA-MB-435): 18.2 µM (inactive) | GI50 (MDA-N): > 45.6 µM (inactive) | GI50 (MOLT-4): 33 µM (inactive) | GI50 (Malme-3M): 9.35 µM (inactive) | GI50 (NCI-H226): 38 µM (inactive) | GI50 (NCI-H23): 14.7 µM (inactive) | GI50 (NCI-H460): 15.8 µM (inactive) | GI50 (NCI-H522): 21.7 µM (inactive) | GI50 (NCI/ADR-RES): 24.4 µM (inactive) | GI50 (OVCAR-3): 3.53 µM (inactive) | GI50 (OVCAR-4): 18.7 µM (inactive) | GI50 (OVCAR-5): 21.9 µM (inactive) | GI50 (OVCAR-8): 26.7 µM (inactive) | GI50 (PC-3): 23.9 µM (inactive) | GI50 (RPMI-8226): 32.6 µM (inactive) | GI50 (RXF 393): 24.8 µM (inactive) | GI50 (SF-268): 31.3 µM (inactive) | GI50 (SF-295): 25.8 µM (inactive) | GI50 (SF-539): > 56.5 µM (inactive) | GI50 (SK-MEL-28): 51.5 µM (inactive) | GI50 (SK-MEL-2): 28.8 µM (inactive) | GI50 (SK-MEL-5): 6.84 µM (inactive) | GI50 (SK-OV-3): 77.4 µM (inactive) | GI50 (SN12C): 26.4 µM (inactive) | GI50 (SNB-19): 26.2 µM (inactive) | GI50 (SNB-75): 29.8 µM (inactive) | GI50 (SW-620): 31.7 µM (inactive) | GI50 (T47D): 30.3 µM (inactive) | GI50 (TK-10): 71.3 µM (inactive) | GI50 (U-251): 27.8 µM (inactive) | GI50 (UACC-257): 19.1 µM (inactive) | GI50 (UACC-62): 20.5 µM (inactive) | GI50 (UO-31): 32.5 µM (inactive)

N#CCCN(CCC#N)c1ccc(/C=C2\N=C(c3ccccc3)N(c3ccccn3)C2=O)cc1
GI50 (786-0): > 100 µM (inactive) | GI50 (A498): > 100 µM (inactive) | GI50 (A549): > 100 µM (inactive) | GI50 (ACHN): > 100 µM (inactive) | GI50 (BT-549): > 100 µM (inactive) | GI50 (CAKI-1): > 100 µM (inactive) | GI50 (CCRF-CEM): > 100 µM (inactive) | GI50 (COLO 205): > 100 µM (inactive) | GI50 (DU-145): > 100 µM (inactive) | GI50 (EKVX): > 100 µM (inactive) | GI50 (HCT-116): > 100 µM (inactive) | GI50 (HCT-15): > 100 µM | GI50 (HL-60): > 100 µM (inactive) | GI50 (HOP-62): > 100 µM (inactive) | GI50 (HOP-92): > 100 µM (inactive) | GI50 (HT-29): > 100 µM (inactive) | GI50 (Hs-578T): > 100 µM (inactive) | GI50 (IGROV-1): > 100 µM (inactive) | GI50 (K562): > 100 µM (inactive) | GI50 (KM12): > 100 µM (inactive) | GI50 (LOX IMVI): > 100 µM (inactive) | GI50 (M14): > 100 µM (inactive) | GI50 (MCF7): > 100 µM (inactive) | GI50 (MDA-MB-231): > 100 µM (inactive) | GI50 (MDA-MB-435): > 100 µM (inactive) | GI50 (MDA-N): > 100 µM (inactive) | GI50 (MOLT-4): > 100 µM (inactive) | GI50 (Malme-3M): > 100 µM (inactive) | GI50 (NCI-H226): > 100 µM (inactive) | GI50 (NCI-H460): > 100 µM (inactive) | GI50 (NCI/ADR-RES): > 100 µM (inactive) | GI50 (OVCAR-3): > 100 µM (inactive) | GI50 (OVCAR-4): > 100 µM (inactive) | GI50 (OVCAR-5): > 100 µM (inactive) | GI50 (OVCAR-8): > 100 µM (inactive) | GI50 (PC-3): > 100 µM (inactive) | GI50 (RPMI-8226): > 100 µM (inactive) | GI50 (RXF 393): > 100 µM (inactive) | GI50 (SF-268): > 100 µM (inactive) | GI50 (SF-295): > 100 µM (inactive) | GI50 (SF-539): > 100 µM (inactive) | GI50 (SK-MEL-28): > 100 µM (inactive) | GI50 (SK-MEL-2): > 100 µM (inactive) | GI50 (SK-MEL-5): > 100 µM (inactive) | GI50 (SK-OV-3): > 100 µM (inactive) | GI50 (SN12C): > 100 µM (inactive) | GI50 (SNB-19): > 100 µM (inactive) | GI50 (SW-620): > 100 µM (inactive) | GI50 (T47D): > 100 µM (inactive) | GI50 (TK-10): > 100 µM (inactive) | GI50 (U-251): > 100 µM (inactive) | GI50 (UACC-257): > 100 µM (inactive) | GI50 (UACC-62): > 100 µM (inactive) | GI50 (UO-31): > 100 µM (inactive)

— ChEMBL document CHEMBL1201862, “PubChem BioAssay data set” (2004)
